From article PMC10709440, “High-throughput ligand profile characterization in novel cell lines expressing seven heterologous insect olfactory receptors for the detection of volatile plant biomarkers” (Scientific Reports, 2023)

Experiments:
Drosophila OR13a = molecular target: T1, Drosophila OR13a (Drosophila melanogaster, UniProt Q9VXL0); assay: cell-based; parameters: GCaMP6 calcium fluorescence in stable HEK293 OR+ORCO lines; peak dF normalised to 50 uM VUAA1 (=1); conditions: HEK293; relative to 50 uM VUAA1 response; below 0.05 set to 0; read-out: % activation
T1 construct: expressed in transfected cells
T1 sequence (Q9VXL0 1-418): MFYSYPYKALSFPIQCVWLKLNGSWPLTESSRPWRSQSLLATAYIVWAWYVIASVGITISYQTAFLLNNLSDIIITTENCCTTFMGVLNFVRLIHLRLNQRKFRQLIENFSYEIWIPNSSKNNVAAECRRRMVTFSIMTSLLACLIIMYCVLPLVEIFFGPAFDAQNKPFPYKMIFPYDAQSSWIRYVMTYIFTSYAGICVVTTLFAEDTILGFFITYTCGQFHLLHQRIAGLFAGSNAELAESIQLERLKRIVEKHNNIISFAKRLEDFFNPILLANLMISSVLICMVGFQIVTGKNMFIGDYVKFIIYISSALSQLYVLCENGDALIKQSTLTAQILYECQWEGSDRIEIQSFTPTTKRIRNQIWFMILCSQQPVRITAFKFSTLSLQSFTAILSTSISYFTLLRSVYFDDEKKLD
T1 sequence (Q9VNB5 1-486 partner): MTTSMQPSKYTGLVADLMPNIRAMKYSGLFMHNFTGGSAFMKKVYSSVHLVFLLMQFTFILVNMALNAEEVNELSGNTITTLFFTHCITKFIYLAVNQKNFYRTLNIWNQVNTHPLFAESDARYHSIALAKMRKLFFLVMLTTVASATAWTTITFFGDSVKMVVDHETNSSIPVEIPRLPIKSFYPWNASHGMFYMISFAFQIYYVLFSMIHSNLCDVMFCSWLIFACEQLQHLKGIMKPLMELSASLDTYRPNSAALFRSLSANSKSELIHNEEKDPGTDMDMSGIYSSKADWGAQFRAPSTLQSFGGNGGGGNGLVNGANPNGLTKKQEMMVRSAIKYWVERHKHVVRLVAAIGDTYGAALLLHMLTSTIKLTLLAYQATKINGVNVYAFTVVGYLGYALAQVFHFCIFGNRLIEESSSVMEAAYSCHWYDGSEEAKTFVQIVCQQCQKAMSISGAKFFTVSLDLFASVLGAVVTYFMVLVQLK
Experimental: (§1) Twelve thousand to 18,000 cells were plated into each well of a black wall, transparent bottom 384-well microplate (Greiner) 48 h or 72 h before the measurements and were simultaneously treated with 1 μg/mL doxycycline. Typically, three columns were filled with one OR expressing cell line, each row was treated with the same compound (three technical replicates for each OR), and each responsive VOC-OR combination was measured at least three times on different days. The plate has 24 columns, thus we could record responses in up to eight different cell lines in each plate. On the day of the experiment, the growth medium was replaced with 20 µL assay buffer/well (140 mM NaCl, 5 mM KCl, 2 mM CaCl2, 1 mM MgCl2, 5 mM HEPES-Na, 20 mM glucose, pH 7.3, 340 mOsm). […] Baseline fluorescence (F0) was recorded for 5 s, after which 7 µL VOC buffer (140 mM NaCl, 5 mM KCl, 2 mM CaCl2, 1 mM MgCl2, 5 mM HEPES-Na, 31 mM glucose, 0.1% DMSO, pH 7.3, 340 mOsm) was injected into each well in one row and the fluorescence response was recorded for an additional 30 s, at a rate of one read/sec. VOC solutions (VOC buffer with 4× concentration of the final measured VOC concentration, 9 µL/well was injected) were measured on the same wells in a second round with the same protocol. Each individual concentration of a specific VOC sample was recorded in three wells for the same cell line on the same microplate. The raw data were exported in xls file format, F0 and FMAX values, and the fluorescence intensity changes (∆F) were calculated in Excel (Microsoft) (Supplementary file Data summary.xlsx) using the following equation: ΔF=FMAX-F0/F0 (see also Fig. 1C). On each plate, we recorded the response of each cell line to 50 µM VUAA1. The average of these ∆F values of each cell line were used to calculate the VUAA1-normalized values for the rest of the plate, by dividing VOC response ∆F values by the average VUAA1 response ∆F value of the corresponding OR cell line. Each VOC-OR combination was measured three times as tec The recorded FMAX, F0, ∆F, VUAA1-normalized ∆F values, as well as the OR name, the name of the tested sample, and the final concentration for each well were copied into supplementary file Data summary.xlsx, that was used to summarize all the plates recorded. Here, the averages of the measurements were calculated for each receptor-VOC-concentration combination. […] Each VOC was measured at 1, 10, and 100 µM final concentration on each receptor. VUAA1-normalized response was calculated as described in methods. Values are averages of at least three biological replicates for responsive combinations and two for the non-responsive combinations. The chemical structures of the strong and medium ligands are shown for each cell line. Heat map: white-green colors correspond to the lowest-highest values measured for each cell line.

Drosophila OR71a = molecular target: T2, Drosophila OR71a (Drosophila melanogaster, UniProt Q9VUK5); assay: cell-based; parameters: GCaMP6 calcium fluorescence in stable HEK293 OR+ORCO lines; peak dF normalised to 50 uM VUAA1 (=1); conditions: HEK293; relative to 50 uM VUAA1 response; below 0.05 set to 0; read-out: % activation
T2 construct: expressed in transfected cells
T2 sequence (Q9VUK5 1-378): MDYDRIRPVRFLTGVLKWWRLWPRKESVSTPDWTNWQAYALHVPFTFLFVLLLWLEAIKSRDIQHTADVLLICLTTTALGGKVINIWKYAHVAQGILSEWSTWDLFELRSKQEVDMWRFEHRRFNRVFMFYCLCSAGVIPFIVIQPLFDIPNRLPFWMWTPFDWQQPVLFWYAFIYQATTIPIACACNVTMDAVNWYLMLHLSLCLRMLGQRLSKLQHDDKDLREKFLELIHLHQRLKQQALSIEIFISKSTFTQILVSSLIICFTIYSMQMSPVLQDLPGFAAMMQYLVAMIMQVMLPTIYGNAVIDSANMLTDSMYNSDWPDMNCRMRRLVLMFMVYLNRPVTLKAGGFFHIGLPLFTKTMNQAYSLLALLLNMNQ
T2 sequence (Q9VNB5 1-486 partner): T1 sequence (Q9VNB5 1-486 partner)
Experimental: as §1

## CC/C=C/CCO [e3-hexenol]
Drosophila OR13a
  activity at 1 µM: 0%
  activity at 10 µM: 0%
  activity at 100 µM: 7.11%
Drosophila OR71a
  activity at 1 µM: 0%
  activity at 10 µM: 0%
  activity at 100 µM: 0%
